Results: article PMC8360061, “Search for the Active Ingredients from a 2‐Aminothiazole DMSO Stock Solution with Antimalarial Activity” (Chemmedchem, 2021)
Where two headings read alike, the source gives them in different places.

Assays:
PfIspE = PfIspE (Plasmodium falciparum, UniProt Q8I470); test: PfIspE enzymatic assay (coupled to PK/LDH, NADH oxidation at 340 nm); format: biochemical
Experimental: (§1) Firstly, we performed a temperature‐dependent decomposition study of compound 1 at 10 mM concentration in DMSO at room temperature (RT), +4 °C and −20 °C (SI, Section 2.3). […] Besides visual inspection of the colour changes of the test sample (see Table 2), the decomposition was monitored by HRMS and NMR spectroscopy. […] Furthermore, all three samples were tested for their inhibitory activity against PfIspE after the incubation period. […] In the IspE assay, the activity of the target enzyme is coupled to the oxidation of NADH (which can be followed spectrophotometrically at 340 nm) via a cascade of the auxiliary enzymes pyruvate kinase and lactate dehydrogenase (PK/LDH).[10] […] Three samples of compound 1 were tested in PK/LDH assay (Table 2).
Another approach to address this issue is to perform the IspE assay with one or several orthologues of PfIspE. […] The IspE assay setup was identical for both Pf and EcIspE orthologs except for the target enzyme used. One of the setup requirements was that the enzymatic activity of the auxiliary enzymes PK/LDH exceeded the activity of the target enzyme IspE not less than a factor of ten.[10] We investigated, if the inhibition of the auxiliary enzymes may substantially influence the IC50 values obtained from the coupled IspE assay.
(§2) 1.1 General Procedure for Enzymatic Assay
(§3) The cloning, expression and purification of Plasmodium falciparum[1] and Escherichia coli[2,3] and their subsequent assays followed the previously reported procedures .[1] In some specified cases, the tested compound was dissolved in methanol or acetonitrile for the assay .
(§4) Due to the nature of the study, some decomposition samples w ere only tested once and thus, for some formal standard error, […]
(§5) For the final purified compounds, replicates were measured and standard deviation was calculated at least from two replicates. […]
(§6) 2.) Decomposition Study Procedure
(§7) All reagents and solvents were of commercial quality and used without further purification.

[1] = biological target: PK/LDH (pyruvate kinase and lactate dehydrogenase); test: PK/LDH auxiliary enzyme assay; format: biochemical
Experimental: as §1, §2, §3, §4, §5, §6, §7
Low resolution mass analytics and purity controls were carried out using an Ultimate 3000-ISQ liquid-chromatography mass spectrometry (LCMS) system (Thermo Fisher Scientific, Dreieich, Germany) consisting of a Dionex UltiMate pump, an autosampler, DAD detector and an ESI quadrupole mass spectrometer. NMR spectra were recorded on a Bruker AV 500 or Ascend 700 (1H, 500 MHz or 700 MHz; 13C, 126 MHz or 175 MHz; 19F, 470 MHz) spectrometer. All spectra were measured in DMSO -d6, methanol-d4, acetone-d6 or acetonitrile-d3 to which reported

[2] = test system: Plasmodium falciparum drug-sensitive NF54; test: Antimalarial assay, [3H]hypoxanthine incorporation; format: cell-based; conditions: for IC50: Plasmodium falciparum, read-out: PfNF54 IC50
Experimental: as §4
For the final purified compounds, replicates were measured and standard deviation was calculated at least from two replicates.
1.2 General Procedure for Antimalarial Assay
Plasmodium falciparum drug-sensitive NF54 (airport strain from The Netherlands, provided by F. Hoffmann-La Roche Ltd) was cultivated in a variation of the medium consisting of RPMI 1640 supplemented with 0.5% ALBUMAX® II, 25 mM Hepes, 25 mM NaHCO3 (pH 7.3), 0.36 mM hypoxanthine, and 100 μg/mL neomycin, as previously described.[4,5] Human erythrocytes served as host cells.
Cultures were maintained in an atmosphere of 3% O2, 4% CO2, and 93% N2 in humidified modular chambers at 37 °C. Compounds were dissolved in MeOH (10 mM), diluted in hypoxanthine-free culture medium and titrated in duplicates over a 64-fold range in 96 well plates. Infected erythrocytes (1.25% final hematocrit and 0.3% final parasitemia) were added into the wells. After 48 h incubation, 0.25 μCi of [3H]hypoxanthine was added per well and plates were incubated for an additional 24 h. Parasites were harvested onto glass-fiber filters and radioactivity was counted using a Betaplate liquid scintillation counter (Wallac, Zurich). Chloroquine […]
The results were recorded and expressed as a percentage of the untreated controls. Fifty percent inhibitory concentrations (IC50) were estimated by linear interpolation.[6] […]

HEK293 = test: Cytotoxicity assay HEK293; format: cell-based; conditions: Homo sapiens, old sample before becoming aware of the decomposition, read-out: %-inh. HEK293
Experimental: as §4, §5
1.3 General Procedure for Cytotoxicity Assay
Cytotoxicity assays based on the human lung adenocarcinoma (A549), human embryonic kidney (Hek293) and human hepatocellular carcinoma (HepG2) cell lines were performed as described previously.[7] […]

[3] = 10 mM DMSO stock stored at +4 °C, measured after 3 months
[4] = 10 mM DMSO stock stored at RT, measured after 3 months
[5] = 10 mM stock in DMSO at RT, 7 days of incubation
[6] = 10 mM stock in DMSO at RT, 9 days of incubation
[7] = 10 mM stock in DMSO at RT, 12 days of incubation
[8] = 10 mM stock in DMSO at RT, 14 days of incubation
[9] = 10 mM stock in DMSO at RT, 16 days of incubation
[10] = analytical sample, DMSO at RT, 4 days of incubation, dissolved in methanol shortly before the assay
[11] = fresh batch, freshly prepared stock solution
[12] = old decomposed sample, control run at the same time as the temperature study

PfIspE, sequence (Q8I470 entry or part of it): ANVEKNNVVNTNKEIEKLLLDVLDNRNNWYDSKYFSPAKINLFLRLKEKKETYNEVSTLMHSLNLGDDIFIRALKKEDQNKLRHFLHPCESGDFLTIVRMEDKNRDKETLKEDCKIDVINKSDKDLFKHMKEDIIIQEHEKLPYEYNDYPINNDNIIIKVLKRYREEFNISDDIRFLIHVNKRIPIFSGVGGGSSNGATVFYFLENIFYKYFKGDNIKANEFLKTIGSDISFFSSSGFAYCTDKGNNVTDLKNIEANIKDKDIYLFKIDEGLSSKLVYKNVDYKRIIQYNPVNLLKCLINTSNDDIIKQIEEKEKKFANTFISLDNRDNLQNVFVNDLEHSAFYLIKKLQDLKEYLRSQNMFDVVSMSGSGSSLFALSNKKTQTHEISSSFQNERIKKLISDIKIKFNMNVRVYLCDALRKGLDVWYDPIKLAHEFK

With CCn1c(C)cc(-c2csc(Nc3ccccc3C(F)(F)F)n2)c1C [Compound 1] the IC50 (PfIspE; [3]) was 16 ± 7 µM, the IC50 (PfIspE; [4]) was 12 ± 4 µM and the IC50 (PfIspE; 10 mM DMSO stock stored at −20 °C, measured after 3 months) was greater than 500 µM. The IC50 (PfIspE; 10 mM stock in ACN at RT, 0 days of incubation) was greater than 500 µM, the IC50 (PfIspE; 10 mM stock in ACN at RT, 5 days of incubation) was greater than 500 µM and the IC50 (PfIspE; 10 mM stock in ACN at RT, 7 days of incubation) was greater than 500 µM. For the same molecule, the IC50 (PfIspE; 10 mM stock in ACN at RT, 9 days of incubation) was greater than 500 µM, the IC50 (PfIspE; 10 mM stock in ACN at RT, 12 days of incubation) was greater than 500 µM and the IC50 (PfIspE; 10 mM stock in ACN at RT, 14 days of incubation) was greater than 500 µM. It also gave an IC50 (PfIspE; 10 mM stock in ACN at RT, 16 days of incubation) greater than 500 µM, an IC50 (PfIspE; 10 mM stock in DMSO at RT, 0 days of incubation) greater than 500 µM and an IC50 (PfIspE; 10 mM stock in DMSO at RT, 5 days of incubation) of 19 ± 7 µM. For the same molecule, the IC50 (PfIspE; [5]) was 24 ± 9 µM, the IC50 (PfIspE; [6]) was 10 ± 4 µM and the IC50 (PfIspE; [7]) was 1 ± 1 µM. The IC50 (PfIspE; [8]) was 10 ± 4 µM, the IC50 (PfIspE; [9]) was 11 ± 4 µM and the IC50 (PfIspE; 10 mM stock in MeOH at RT, 0 days of incubation) was greater than 500 µM. For the same molecule, the IC50 (PfIspE; 10 mM stock in MeOH at RT, 5 days of incubation) was greater than 500 µM, the IC50 (PfIspE; 10 mM stock in MeOH at RT, 7 days of incubation) was greater than 500 µM and the IC50 (PfIspE; 10 mM stock in MeOH at RT, 9 days of incubation) was greater than 500 µM. The IC50 (PfIspE; 10 mM stock in MeOH at RT, 12 days of incubation) was greater than 500 µM, the IC50 (PfIspE; 10 mM stock in MeOH at RT, 14 days of incubation) was greater than 500 µM and the IC50 (PfIspE; 10 mM stock in MeOH at RT, 16 days of incubation) was greater than 500 µM. For the same molecule, the IC50 (PfIspE; analytical sample, DMSO at RT, 0 days of incubation, dissolved in methanol shortly before the assay) was greater than 500 µM, the IC50 (PfIspE; analytical sample, DMSO at RT, 1 day of incubation, dissolved in methanol shortly before the assay) was greater than 500 µM and the IC50 (PfIspE; analytical sample, DMSO at RT, 2 days of incubation, dissolved in methanol shortly before the assay) was greater than 500 µM. For the same molecule, the IC50 (PfIspE; analytical sample, DMSO at RT, 3 days of incubation, dissolved in methanol shortly before the assay) was 486 ± 20 µM, the IC50 (PfIspE; [10]) was 99 ± 23 µM and the IC50 (PfIspE; fractions of second purification (DMSO, RT, five days), dissolved in ACN) was greater than 1370 µM. For the same molecule, the IC50 (PfIspE; fractions of second purification (DMSO, RT, five days), dissolved in MeOH) was greater than 1370 µM, the IC50 (PfIspE; [11]) was greater than 500 µM and the “PfIspE IC50” value (PfIspE; [11]) was “no activity”. For the same molecule, the IC50 (PfIspE; freshly dissolved compound, in methanol shortly before the assay (Table 4 footnote b)) was greater than 500 µM, the IC50 (PfIspE; old batch (decomposed DMSO stock)) was 8 ± 2.8 µM and the IC50 (PfIspE; [12]) was 10 ± 3 µM. It also gave an IC50 [1, 3] of 45 ± 6 µM, an IC50 [1, 4] of 34 ± 4 µM and an IC50 [1, 5] of 48 ± 16 µM. For the same molecule, the IC50 [1, 6] was 57 ± 22 µM, the IC50 [1, 7] was 2 ± 1 µM and the IC50 [1, 8] was 50 ± 11 µM. It also gave an IC50 [1, 9] of 86 ± 17 µM, an IC50 [1, 10] of 95 ± 21 µM and an IC50 [1, 12] of 40 ± 4 µM. The IC50 ([2]; NF54, 48 h, analytical sample, DMSO at RT, 2 days of incubation, dissolved in methanol shortly before the assay) was 3.5 ± 0.3 µM, the IC50 ([2]; NF54, 96 h, analytical sample, DMSO at RT, 4 days of incubation, dissolved in methanol shortly before the assay) was 2.7 ± 0.3 µM and the IC50 ([2]; NF54, fresh batch) was 7.3 ± 0.8 µM. For the same molecule, the IC50 ([2]; NF54, old batch (decomposed DMSO stock)) was 0.43 ± 0.01 µM, the “reduction in activity against PfNF54, fresh batch vs old batch” value ([2]; fresh batch compared with old decomposed batch) was 17 fold and the inhibition at 100 µM (HEK293) was 28%.
